Source: patent US20060165649A1, “Methods of using and compositions comprising selective cytokine inhibitory drugs for the treatment and management of myeloproliferative diseases” (priority 2002, published 2006)

System: anesthetized dogs
Experiment: Cardiovascular and respiratory function in anesthetized dogs (safety pharmacology)
Assay type: in vivo
Settings: anesthetized Beagle dogs; three ascending doses 400, 800, and 1,200 mg/kg/day; infusion through the jugular vein; compared to the vehicle control group
Experimental: The pharmacological properties of 3-(3,4-dimethoxy-phenyl)-3-(1-oxo-1,3-dihydro-isoindol-2-yl)-propionamide, including activity comparisons with thalidomide, are characterized in in vitro studies. Studies examine the effects of 3-(3,4-dimethoxy-phenyl)-3-(1-oxo-1,3-dihydro-isoindol-2-yl)-propionamide on the production of various cytokines. In addition, a safety pharmacology study of 3-(3,4-dimethoxy-phenyl)-3-(1-oxo-1,3-dihydro-isoindol-2-yl)-propionamide is conducted in dogs and the effects of the compound on ECG parameters are examined further as part of three repeat-dose toxicity studies in primates.
The effects of 3-(3,4-dimethoxy-phenyl)-3-(l-oxo-1,3-dihydro-isoindol-2-yl)-propionamide on cardiovascular and respiratory function are investigated in anesthetized dogs. Two groups of Beagle dogs (2/sex/group) are used. One group receives three doses of vehicle only and the other receives three ascending doses of 3-(3,4-dimethoxy-phenyl)-3-(1-oxo-1,3-dihydro-isoindol-2-yl)-propionamide (400, 800, and 1,200 mg/kg/day). In all cases, doses of 3-(3,4-dimethoxy-phenyl)-3-(1-oxo-1,3-dihydro-isoindol-2-yl)-propionamide or vehicle are successively administered via infusion through the jugular vein separated by intervals of at least 30 minutes. […]

COc1ccc(C(CC(N)=O)N2Cc3ccccc3C2=O)cc1OC (stereo not shown) [3-(3,4-dimethoxy-phenyl)-3-(1-oxo-1,3-dihydro-isoindol-2-yl)-propionamide]
cardiovascular and respiratory changes: minimal
